Literature values in patent US12622907B2, “Hair loss therapy” (NIRMANA BIO, INC., priority 2021, dated 2026).
Like-named read-outs stand apart in the source and are kept apart here.

How the values were obtained:
[1] = test system: men with male pattern hair loss; conditions: oral 1 mg/day
943 women and 461 men = conditions: for subjects who had to stop treatment because of a side effect: low doses used for hair loss

## CC(C)(C)NC(=O)[C@H]1CC[C@H]2[C@@H]3CC[C@H]4NC(=O)C=C[C@]4(C)[C@H]3CC[C@]12C [finasteride, Finasteride]
[1]; men with vertex hair loss, after 2 years
  recipients with no further hair loss compared with baseline (hair counts): 83%
[1]; men with vertex hair loss, at 1 year
  recipients with improvement in hair growth in global photographs: 48%
[1]; men with vertex hair loss, at 2 years
  recipients with improvement in hair growth in global photographs: 66%
[1]; significant proportion of men with male pattern hair loss
  effect on hair growth and hair loss: promotes hair growth and prevents further hair loss

## Nc1cc(N2CCCCC2)nc(N)[n+]1[O-] [minoxidil, Minoxidil]
943 women and 461 men; low doses which are used to treat hair loss
  frequency of side effects: very uncommon
943 women and 461 men; men (461)
  subjects who had to stop treatment because of a side effect: 0.5%
943 women and 461 men; women (943)
  subjects who had to stop treatment because of a side effect: 2.5%
